According to ChEMBL document CHEMBL1201862, “PubChem BioAssay data set” (2004):
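Test compounds were applied to cells in 96-well plates for 48 hours at 5 doses. At the GI50, growth is halved.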 Active and inactive are the calls of the source. Cut-off read from the data, not from the text of the source: active = GI50 up to about 1.1 µM and inactive = higher.

What was measured:
Experiment in all cases: NCI-60 cell line screen, 48 h
BT-549 = tested on: BT-549
HOP-18 = tested on: HOP-18
DLD-1 = tested on: DLD-1
DMS-114 = tested on: DMS-114
M19-MEL = tested on: M19-MEL
SNB-78 = tested on: SNB-78
DMS-273 = tested on: DMS-273
XF498 = tested on: XF498
RXF 631 = tested on: RXF 631

Measured: GI50

CN(C)CCCn1c(-c2ccc(Br)cc2)cs/c1=N\c1ccccc1
inactive: BT-549 15.4 µM

Cn1c(=O)n2n(c1=O)C(C)(C13CC4CC(CC(C4)C1)C3)C13CC4CC(CC1C4)CC23 (stereo not drawn)
inactive: BT-549 > 100 µM

Cc1nc(N(CCO)CCO)c2sc(=S)n(-c3ccccc3)c2n1
inactive: HOP-18 > 100 µM | DLD-1 > 100 µM

COC(=O)C(NC(=O)OC(C)(C)C)P(=O)(OC)OC (stereo not drawn)
inactive: BT-549 > 100 µM

Cc1nc2ccccc2c(=O)n1CC(=O)O
inactive: HOP-18 > 100 µM | DMS-114 > 100 µM | M19-MEL > 100 µM | SNB-78 > 100 µM | DMS-273 > 100 µM | DLD-1 > 100 µM | XF498 > 100 µM

Nc1ccc2c(c1)C1=NNC(=O)CC1C2 (stereo not drawn)
inactive: HOP-18 > 77.6 µM | DMS-114 > 100 µM | M19-MEL > 100 µM | SNB-78 > 100 µM | DMS-273 > 100 µM | DLD-1 > 100 µM | XF498 > 100 µM

c1ccc2c(c1)c1c(n2CCOCCCN2CCCCC2)CCCC1
inactive: BT-549 15.5 µM

Cc1nc2c(nc1Cl)nc(Oc1ccc(Cl)cc1)c1ccccc12
inactive: DMS-114 47.5 µM | M19-MEL > 100 µM | SNB-78 59.4 µM | DMS-273 46.5 µM | RXF 631 > 100 µM | DLD-1 49.9 µM | XF498 73.3 µM

N#C[C@H](c1ccccn1)c1nc2ccccc2nc1Cl
inactive: BT-549 > 100 µM

COc1ccc(NC(=S)c2ccc([N+](=O)[O-])o2)cc1
inactive: BT-549 1.85 µM

O=C1C2c3[nH]c4ccccc4c3C3CCSCC3C2C(=O)N1c1ccccc1 (stereo not drawn)
inactive: M19-MEL > 100 µM | SNB-78 > 100 µM | DMS-273 > 100 µM | DLD-1 > 100 µM | XF498 > 100 µM

O=C(c1ccccc1)c1cc(Cl)ccc1NCn1nnc2ccccc21
inactive: HOP-18 > 100 µM | DMS-114 31.5 µM | M19-MEL 81.7 µM | DMS-273 39.1 µM | DLD-1 > 100 µM | XF498 > 100 µM

CCCC(=O)Nc1cc2c3c(c1)CCCN3CCC2
inactive: BT-549 > 10 µM

Cc1cc2nc3c(C(O)CO)nn(-c4ccccc4)c3nc2cc1C (stereo not drawn)
inactive: BT-549 18.8 µM

C[N+](C)(C)/C=N\c1cccc2c1CCCC2
inactive: BT-549 57.1 µM

CC(C)N(C)C(=O)C12C3C4C1C1C2C3C41C#N (stereo not drawn)
inactive: BT-549 > 100 µM

CC(C)NC(=O)OCc1nnn2c1CCC2
inactive: M19-MEL > 100 µM | SNB-78 > 100 µM | DLD-1 > 100 µM | XF498 > 100 µM

O=S(O)CCCSSSCCCS(=O)O
inactive: DMS-114 > 100 µM | M19-MEL > 100 µM | SNB-78 > 100 µM | RXF 631 > 100 µM | DLD-1 > 100 µM | XF498 > 100 µM

C=C1CC(OC)(C(OC)C(=O)N[C@H]2OCO[C@H]3C2O[C@H](C[C@@H](COC)OC)C(C)(C)C3OC)O[C@H](C)[C@@H]1C (stereo partly drawn)
inactive: HOP-18 2.08 µM | DMS-114 1.22 µM
active: M19-MEL 0.778 µM | SNB-78 1.11 µM | DMS-273 0.875 µM | DLD-1 0.805 µM | XF498 0.604 µM

CC(=O)O[C@H]1CC[C@@]2(C)[C@H](CC[C@@H]3[C@@H]2CC[C@]2(C)[C@@H](c4ccc(=O)oc4)C[C@H]4O[C@]342)C1
active: HOP-18 0.423 µM | DMS-114 0.119 µM | M19-MEL 1.05 µM | SNB-78 0.404 µM | DMS-273 0.458 µM | DLD-1 0.354 µM
inactive: XF498 1.3 µM
